According to US10450318B2, “CXCR4 receptor antagonists” (BRISTOL-MYERS SQUIBB COMPANY, priority 2015, dated 2019):

Target: T1, CXCR4 receptors (Homo sapiens, UniProt P61073)
T1 construct: expressing endogenous CXCR4 receptors; endogenous in cells; host or cells: CCRF-CEM (human T lymphoblast cells)
Assay: CXCR4-CEM calcium flux assay, antagonist mode (inhibition of SDF-1α-induced calcium flux)
Assay type: cell-based
Details: inhibition of calcium flux induced by 4 nM SDF-1α in CCRF-CEM cells
Outline: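 CCRF-CEM cells were preincubated with compound (0.5% DMSO) for 25 min at room temperature, then stimulated with 4 nM SDF-1α. The resulting calcium flux was recorded by FDSS for 90 sec. Percent inhibition was calculated against an internal control compound, and background-corrected EC50 values were derived.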

T1 sequence (P61073 whole entry): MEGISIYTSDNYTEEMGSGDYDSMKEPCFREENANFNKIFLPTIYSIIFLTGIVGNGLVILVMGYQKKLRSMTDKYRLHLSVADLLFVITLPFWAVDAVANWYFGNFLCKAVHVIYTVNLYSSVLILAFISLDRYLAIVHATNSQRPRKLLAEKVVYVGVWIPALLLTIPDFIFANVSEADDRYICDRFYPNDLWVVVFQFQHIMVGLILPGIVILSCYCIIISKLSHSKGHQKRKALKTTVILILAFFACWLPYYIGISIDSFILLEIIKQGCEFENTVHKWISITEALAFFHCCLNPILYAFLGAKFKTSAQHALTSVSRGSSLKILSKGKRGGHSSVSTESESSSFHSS

Row | SMILES | IC50
1 | CN(Cc1cn2c(N3CCN[C@@H](CO)C3)nccc2n1)[C@H]1CCCc2cccnc21 [Example 85, ((R)-4-(2-((methyl((S)-5,6,7,8-tetrahydroquinolin-8-yl)amino)methyl)imidazo[1,2-c]pyrimidin-5-yl)piperazin-2-yl)methanol] | 1.7 nM
2 | CN(Cc1cn2c(N3CCN[C@H](CO)C3)nccc2n1)[C@H]1CCCc2cccnc21 [Example 86, ((S)-4-(2-((methyl((S)-5,6,7,8-tetrahydroquinolin-8-yl)amino)methyl)imidazo[1,2-c]pyrimidin-5-yl)piperazin-2-yl)methanol] | 1.7 nM
3 | CN(Cc1cn2c(N3CCN4C[C@@H](F)C[C@H]4C3)nccc2n1)[C@H]1CCCc2cccnc21 [Example 87, (S)-N-((5-((7S,8aS)-7-fluorohexahydropyrrolo[1,2-a]pyrazin-2(1H)-yl)imidazo[1,2-c]pyrimidin-2-yl)methyl)-N-methyl-5,6,7,8-tetrahydroquinolin-8-amine] | 200 nM
4 | CN(Cc1cn2c(N3CC4CNC4C3)nccc2n1)[C@H]1CCCc2cccnc21 (stereo partly drawn) [Example 88, (8S)-N-((5-(3,6-diazabicyclo[3.2.0]heptan-3-yl)imidazo[1,2-c]pyrimidin-2-yl)methyl)-N-methyl-5,6,7,8-tetrahydroquinolin-8-amine] | 220 nM
5 | CN(Cc1cn2c(N3CC4CNC4C3)nccc2n1)[C@H]1CCCc2cccnc21 (stereo partly drawn) [Example 89, (8S)-N-((5-(3,6-diazabicyclo[3.2.0]heptan-3-yl)imidazo[1,2-c]pyrimidin-2-yl)methyl)-N-methyl-5,6,7,8-tetrahydroquinolin-8-amine] | 280 nM
6 | CN(Cc1cn2c(N3CCN4CCCCC4C3)nccc2n1)[C@H]1CCCc2cccnc21 (stereo partly drawn) [Example 90, (8S)-N-methyl-N-((5-(octahydro-2H-pyrido[1,2-a]pyrazin-2-yl)imidazo[1,2-c]pyrimidin-2-yl)methyl)-5,6,7,8-tetrahydroquinolin-8-amine] | 2.5 nM
7 | CN(Cc1cn2c(N3CC4CCNC4C3)nccc2n1)[C@H]1CCCc2cccnc21 (stereo partly drawn) [Example 93, (8S)-N-((5-(hexahydropyrrolo[3,4-b]pyrrol-5(1H)-yl)imidazo[1,2-c]pyrimidin-2-yl)methyl)-N-methyl-5,6,7,8-tetrahydroquinolin-8-amine] | 27 nM

Results, then the molecule that gave them:

Row | IC50 | SMILES
8 | 65 nM | CN(Cc1cn2c(N3CC4CCNC4C3)nccc2n1)[C@H]1CCCc2cccnc21 (stereo partly drawn) [Example 94, (8S)-N-((5-(hexahydropyrrolo[3,4-b]pyrrol-5(1H)-yl)imidazo[1,2-c]pyrimidin-2-yl)methyl)-N-methyl-5,6,7,8-tetrahydroquinolin-8-amine]
9 | 480 nM | C[C@@H]1CN(c2nccc3nc(CN(C)[C@H]4CCCc5cccnc54)cn23)C[C@H](C)N1C [Example 97, (S)—N-Methyl-N-((5-((3S,5R)-3,4,5-trimethylpiperazin-1-yl)imidazo[1,2-c]pyrimidin-2-yl)methyl)-5,6,7,8-tetrahydroquinolin-8-amine]
10 | 1.9 nM | CN1CCN(c2nccc3nc(CN(C)[C@H]4CCCc5cccnc54)cn23)C[C@@H]1CO [Example 98, ((R)-1-methyl-4-(2-((methyl((S)-5,6,7,8-tetrahydroquinolin-8-yl)amino)methyl)imidazo[1,2-c]pyrimidin-5-yl)piperazin-2-yl)methanol]
11 | 27 nM | CN1CCN(c2nccc3nc(CN(C)[C@H]4CCCc5cccnc54)cn23)C[C@H]1CO [Example 99, ((S)-1-methyl-4-(2-((methyl((S)-5,6,7,8-tetrahydroquinolin-8-yl)amino)methyl)imidazo[1,2-c]pyrimidin-5-yl)piperazin-2-yl)methanol]
12 | 210 nM | CN1CCC2CN(c3nccc4nc(CN(C)[C@H]5CCCc6cccnc65)cn34)CC21 (stereo partly drawn) [Example 100, (8S)-N-methyl-N-((5-(1-methylhexahydropyrrolo[3,4-b]pyrrol-5(1H)-yl)imidazo[1,2-c]pyrimidin-2-yl)methyl)-5,6,7,8-tetrahydroquinolin-8-amine]
